Assay results reported in US5446020A (Scios Nova Inc., priority 1993, dated 1995).

Columns and labels:
[1] = in vivo; cited from earlier work
rats = experiment: euglycemic, hyperinsulinemic clamp with 3H-glucose tracer; type: in vivo; details: rat clamp
Experimental: Analogs of the invention can be tested in a euglycemic, hyperinsulinemic rat clamp using ^3 H-glucose as a tracer. In accordance with this technique, glucose is infused to maintain euglycemia. […] Using ^3 H-glucose, glucose utilization by the periphery (Rd) and glucose production by the liver (HGO) can be calculated under steady state conditions using the equation of Steel et al., Am. J. Physiol. (1956) 187:15-24, incorporated herein by reference.
Analogs were tested using the euglycemic, hyperinsulinemic clamp method. […] The exogenous glucose was infused at a rate sufficient to maintain euglycemia for the duration of the experiment. Additionally, [D-3-^3 H] glucose (tracer) is infused to assess glucose metabolism (i.e, glucose turnover). The steady state equation of Steele et al. (Am. J. Physiol. (1956) 187:15-241) was used to calculate hepatic glucose output and the rate of glucose disposal. Under steady state conditions, glucose (mg/ml) and ^3 H-glucose (dpm/ml) levels are constant. Under these conditions the rate of glucose appearance (Ra)=rate of glucose disappearance (Rd). At steady state Ra =Rd. Ra is further defined as the rate of glucose entering the glucose pool (approximately the blood volume and other extra-cellular volume). Ra is equal to the rate at which the liver is making glucose plus the rate of any exogenous glucose infusion. Rd is equal to the rate of glucose leaving the pool.
Three main parameters are used to assess the effects of the analogs. The rate of exogenous infusion (i.e., glucose infusion rate, GIR or M) estimates the potency of analog. […] Finally, hepatic glucose output (HGO), reflects the ability of the analogs to suppress the liver's production of glucose.
Four to five days prior to experimentation, 65 mg/kg of sodium pentobarbital was administered intraperitoneally to anesthetize rats. Catheters were inserted in the right jugular vein and left carotid artery. The catheters were routed subcutaneously to the dorsal region of the neck and exteriorized. […] Blood samples were taken from the jugular vein. […] At 10 minute intervals after starting hormone infusion, 50 μl blood samples were taken to determine the plasma glucose level. During infusion of hormone, a 30% glucose solution was infused at an empirically determined rate to maintain the basal glucose level.
Aliquots of whole blood were obtained at -20, -10 and 0 minutes before the clamp was started, and later at 70, 80, and 90 minutes into the clamp and the plasma glucose level determined. Glucose specific activity at these times was also determined as follows: [formula]
The blood was deproteinized with 10% TCA, centrifuged, and an aliquot of supernatant dried in a vacuum oven to evaporate off ^3 H2 O. The ^3 H-glucose levels in the sample were determined using a liquid scintillation counter. Basal Ra (glucose appearance rate) and clamp Ra were calculated by using steady state glucose specific activity (basal: -20, -10 and 0 minutes; clamp: 70, 80, 90 minutes) and the following equation: [formula] Under basal conditions, at steady state, Ra =Rd and Ra hepatic glucose output. Under clamp conditions, at a steady state, Ra =Rd, however under these conditions, Ra =hepatic glucose output plus exogenous glucose infusion rate. Hepatic glucose output under clamp conditions was determined by subtracting the glucose infusion rate from the calculated Rd.

[2] = of the potency of native insulin; cited from earlier work
[3] = cited from earlier work

| Substance | circulating half-life [1] [min] | GIR (glucose infusion rate) (rats; infusion 41.5 ng/kg/min) [mg/kg/min] | HGO (hepatic glucose output) (rats; infusion 41.5 ng/kg/min) [mg/kg/min] | Rd (rate of glucose disappearance) (rats; infusion 41.5 ng/kg/min) [mg/kg/min] | GIR (glucose infusion rate) (rats; infusion 83 ng/kg/min) [mg/kg/min] | GIR (glucose infusion rate) (rats; infusion 100 ng/kg/min) [mg/kg/min] | HGO (hepatic glucose output) (rats; infusion 100 ng/kg/min) [mg/kg/min] | Rd (rate of glucose disappearance) (rats; infusion 100 ng/kg/min) [mg/kg/min] | GIR (glucose infusion rate) (rats; infusion 166 ng/kg/min) [mg/kg/min] | HGO (hepatic glucose output) (rats; infusion 166 ng/kg/min) [mg/kg/min] | Rd (rate of glucose disappearance) (rats; infusion 166 ng/kg/min) [mg/kg/min] | GIR (glucose infusion rate) (rats; infusion 415 ng/kg/min) [mg/kg/min] | HGO (hepatic glucose output) (rats; infusion 415 ng/kg/min) [mg/kg/min] | Rd (rate of glucose disappearance) (rats; infusion 415 ng/kg/min) [mg/kg/min] | potency relative to native insulin when assayed in vitro [2] | potency relative to insulin in vivo ([3]; of the potency of insulin) | in vivo hepatoselectivity, more than that of insulin ([3]; relative to insulin per se) [%] |
| --- | --- | --- | --- | --- | --- | --- | --- | --- | --- | --- | --- | --- | --- | --- | --- | --- | --- |
| Insulin: insulin, the comparator hormone infused in the rat clamp | 4 | 1.7 ± 0.6 | 11.3 ± 0.3 | 13.0 ± 0.3 | 6.9 ± 0.8 | 8.8 ± 1.2 | 9.1 ± 0.7 | 17.8 ± 1.0 | 19.7 ± 0.5 | 6.4 ± 1.1 | 26.1 ± 0.8 | 30.8 ± 1.7 | 3.5 ± 0.7 | 34.3 ± 1.6 |  |  |  |
| Proinsulin: single chain peptide precursor of insulin synthesized in the islets of Langerhans | 30 |  |  |  |  |  |  |  |  |  |  |  |  |  | 1-2% | about 15% | 50 |
